Test results reported in PubChem BioAssay (NCI).
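Grown in 96-well plates, cells were treated for 48 hours with each compound at five concentrations. Insufficient inhibition: endpoint recorded as highest concentration tested. GI50 marks 50% less growth. TGI marks complete inhibition of growth.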

Key:
Test in all cases: NCI-60 cell line screen, 48 h
[1] = test system: U251 CNS
[2] = test system: A549 NSCLC
[3] = test system: KM12 colon
[4] = test system: COLO 205 colon
[5] = test system: RPMI-8226 leukemia
[6] = test system: NCI-H23 lung
[7] = test system: KM20L2 colon
[8] = test system: OVCAR-3 ovarian
[9] = test system: SK-MEL-5 melanoma
[10] = test system: OVCAR-5 ovarian
[11] = test system: XF 498 CNS
[12] = test system: OVCAR-8 ovarian
[13] = test system: M14 melanoma
[14] = test system: UACC-62 melanoma
[15] = test system: RXF 393 renal
[16] = test system: SF-295 CNS
[17] = test system: SK-MEL-28 melanoma
[18] = test system: HT29 colon
[19] = test system: NCI-H522 lung
[20] = test system: SF-268 CNS
[21] = test system: HOP-62 NSCLC
[22] = test system: HL-60(TB) leukemia
[23] = test system: MOLT-4 leukemia
[24] = test system: SNB-75 CNS
[25] = test system: TK-10 renal
[26] = test system: SW-620 colon
[27] = test system: IGROV1 ovarian
[28] = test system: ACHN renal
[29] = test system: SF-539 CNS
[30] = test system: HCT-15 colon
[31] = test system: HCT-116 colon
[32] = test system: K-562 leukemia
[33] = test system: SN12C renal
[34] = test system: MALME-3M melanoma
[35] = test system: SK-MEL-2 melanoma
[36] = test system: CCRF-CEM leukemia
[37] = test system: OVCAR-4 ovarian
[38] = test system: EKVX NSCLC
[39] = test system: SR leukemia
[40] = test system: SNB-19 CNS
[41] = test system: 786-0 renal
[42] = test system: LXFL 529 NSCLC
[43] = test system: LOX IMVI melanoma
[44] = test system: DMS 273 small cell lung
[45] = test system: DMS 114 small cell lung
[46] = test system: NCI-H226 lung
[47] = test system: M19-MEL melanoma
[48] = test system: NCI-H460 lung
[49] = test system: UO-31 renal
[50] = test system: A498 renal
[51] = test system: UACC-257 melanoma
[52] = test system: HCC-2998 colon
[53] = test system: DLD-1 colon
[54] = test system: SK-OV-3 ovarian
[55] = test system: CAKI-1 renal

Nc1nc(-c2ccco2)cc(-c2ccco2)n1
TGI [1]: > 100 µM
TGI [2]: > 100 µM
TGI [3]: > 100 µM
TGI [4]: > 100 µM
TGI [5]: > 100 µM
TGI [6]: > 100 µM
TGI [7]: > 100 µM
TGI [8]: > 100 µM
TGI [9]: > 100 µM
TGI [10]: > 100 µM
TGI [11]: > 100 µM
TGI [12]: > 100 µM
TGI [13]: > 100 µM
TGI [14]: > 100 µM
TGI [15]: > 100 µM
TGI [16]: > 100 µM
TGI [17]: > 100 µM
TGI [18]: > 100 µM
TGI [19]: > 100 µM
TGI [20]: > 100 µM
TGI [21]: > 100 µM
TGI [22]: > 100 µM
TGI [23]: > 100 µM
TGI [24]: > 100 µM
TGI [25]: > 100 µM
TGI [26]: > 100 µM
TGI [27]: > 100 µM
TGI [28]: > 100 µM
TGI [29]: > 100 µM
TGI [30]: > 100 µM
TGI [31]: > 100 µM
TGI [32]: > 100 µM
TGI [33]: > 100 µM
TGI [34]: > 100 µM
TGI [35]: > 100 µM
TGI [36]: > 100 µM
TGI [37]: > 100 µM
TGI [38]: > 100 µM
TGI [39]: > 100 µM
TGI [40]: > 100 µM
TGI [41]: > 100 µM
TGI [42]: > 100 µM
TGI [43]: > 100 µM
TGI [44]: > 100 µM
TGI [45]: > 100 µM
TGI [46]: > 100 µM
TGI [47]: > 100 µM
TGI [48]: > 100 µM
TGI [49]: > 100 µM

CC(C)=[CH][Sb]([Br])([CH]=C(C)C)([CH]=C(C)C)[c]1ccccc1
GI50 [1]: 16.3 µM
TGI [1]: 74.2 µM
GI50 [2]: 16.6 µM
TGI [2]: > 100 µM
GI50 [3]: 6.74 µM
TGI [3]: > 100 µM
GI50 [4]: 4.52 µM
TGI [4]: 19.2 µM
GI50 [5]: 2.12 µM
TGI [5]: 15.7 µM
GI50 [6]: 14.4 µM
TGI [6]: 45.1 µM
GI50 [7]: 15.9 µM
TGI [7]: > 100 µM
GI50 [8]: 4.32 µM
TGI [8]: 67.3 µM
GI50 [9]: 4.27 µM
TGI [9]: 21.1 µM
GI50 [11]: 24.3 µM
TGI [11]: > 100 µM
GI50 [12]: 29.6 µM
TGI [12]: > 100 µM
GI50 [13]: 20.6 µM
TGI [13]: 82.4 µM
GI50 [14]: 16 µM
TGI [14]: 97.2 µM
GI50 [15]: 11.4 µM
TGI [15]: 57.5 µM
GI50 [16]: 20.2 µM
TGI [16]: 90.1 µM
GI50 [17]: 17.3 µM
TGI [17]: > 100 µM
GI50 [50]: 73 µM
TGI [50]: > 100 µM
GI50 [18]: 20.6 µM
TGI [18]: > 100 µM
GI50 [19]: 3.32 µM
TGI [19]: 13.9 µM
GI50 [20]: 14.5 µM
TGI [20]: 58.2 µM
GI50 [21]: 43.9 µM
TGI [21]: > 100 µM
GI50 [22]: 3.71 µM
TGI [22]: 15.6 µM
GI50 [23]: 23.9 µM
TGI [23]: > 100 µM
GI50 [25]: 34.9 µM
TGI [25]: > 100 µM
GI50 [26]: 32.6 µM
TGI [26]: > 100 µM
GI50 [27]: 16.9 µM
TGI [27]: > 100 µM
GI50 [28]: 36.9 µM
TGI [28]: > 100 µM
GI50 [30]: > 100 µM
TGI [30]: > 100 µM
GI50 [31]: 13 µM
TGI [31]: 47.2 µM
GI50 [32]: 11 µM
TGI [32]: 23 µM
GI50 [33]: 25.4 µM
TGI [33]: > 100 µM
GI50 [34]: 6.07 µM
TGI [34]: > 100 µM
GI50 [51]: 6.35 µM
TGI [51]: > 100 µM
GI50 [35]: 26 µM
TGI [35]: 86.7 µM
GI50 [36]: 12.8 µM
TGI [36]: 46.6 µM
GI50 [37]: 49.3 µM
TGI [37]: > 100 µM
GI50 [38]: 3.95 µM
TGI [38]: > 100 µM
GI50 [52]: 27.2 µM
TGI [52]: > 100 µM
GI50 [39]: 18.7 µM
TGI [39]: > 100 µM
GI50 [40]: 8.95 µM
TGI [40]: 79 µM
GI50 [53]: 34 µM
TGI [53]: > 100 µM
GI50 [54]: 23 µM
TGI [54]: 74.6 µM
GI50 [41]: 43.7 µM
TGI [41]: > 100 µM
GI50 [55]: > 100 µM
TGI [55]: > 100 µM
GI50 [42]: 20.3 µM
TGI [42]: > 100 µM
GI50 [43]: 35.4 µM
TGI [43]: > 100 µM
GI50 [44]: 3.91 µM
TGI [44]: 31 µM
GI50 [45]: 13.1 µM
TGI [45]: 46.3 µM
GI50 [47]: 6.14 µM
TGI [47]: > 100 µM
GI50 [48]: 21.6 µM
TGI [48]: > 100 µM
GI50 [49]: 23.2 µM
TGI [49]: > 100 µM
